Where two headings read alike, the source gives them in different places.

What all share (format): cell-based, human
Experiment [1] deals with HT 29 (Colon adenocarcinoma). The experiment can be described thus: In vitro cytotoxicity, microculture tetrazolium (MTT) assay, HT 29. On the procedure:
(§1) In Vitro Cytotoxicity--Microculture Tetrazolium Assay
(§2) The microculture tetrazolium assay was used to test in vitro cytotoxicity. This assay is described in Plumb, J. A. et al., 1989 Cancer Research 49, 4435-4440, which is herein incorporated by reference. The cytotoxicity of compounds towards tumor cells is measured in vitro using the assay. This assay method is based upon the ability of live, but not dead cells to reduce the yellow water soluble dye 3-(4;5-dimethylthiazol-2-yl)-2,5-diphenyltetrazolium bromide (MTT) to its water insoluble purple formazan product.
(§3) Human Tumor Cell lines, used were:
HT 29 (Colon adenocarcinoma) ATCC catalog #HTB-38.
(§4) The cells were maintained in exponential growth in culture in minimal essential media (MEM) supplemented with non-essential amino acids, and containing 15% (v/v) fetal bovine serum, 5 mM L-glutamine, 1 mM sodium pyruvate, and 0.1 U/ml insulin. All cell lines were grown at 37° C. in an atmosphere of 5% CO2 in air.
(§5) Test compounds: 20 mM in DMSO and diluted to a final concentration of 200 μM in culture medium before use.
(§6) The following is the generic description of the assay method. It should be noted that although the conditions described work well with the cells listed above, the initial plating density and the MTT concentration used should be verified for each new cell line used to test compounds.
(§7) For each assay, doxorubicin is included as an inter-assay standard. This allows us to monitor the behaviour of the assay in general, and in particular, to check that the SKVLB line has maintained its resistant phenotype.
(§8) The plate layout is done in the following manner: The assays are carried out in 96-well (8 well×12 well) microtiter plates. Serial dilutions of the compound are tested along the length of the plate. A 1:3 serial dilution of compound in culture medium covers a concentration range from 100 μM to 1.7 nM. Each concentration of compound is tested in quadruplet, allowing two compounds to be tested per plate. Wells containing no cells (blank) and cells with no test compound (control) are included on each plate.
(§9) Cells are plated out in 100 μl of culture medium in the microtiter plates at a density of around 1,500-4,000 cells per well. The plates are incubated overnight to allow the cells to become adherent after which the test compound is added (100 μl of appropriate dilution per well). The cells are incubated with test compound at 37° C. for 48 h after which the compound is replaced with fresh medium. After a further 48 h incubation at 37° C., 50 μl of MTT solution (2 mg/ml) is added to each well. The plates are incubated in the dark for 4 h at 37° C. after which the medium is removed. The MTT formazan product is extracted from the cells by the addition of 200 μl DMSO followed by 50 μl of Sorensen's buffer. The plates are shaken briefly and the absorbance at 570 nm is read using a Molecular Devices UV max plate reader. Curves are fit to the MTT assay data using a four parameter logistic equation, and the data are normalized to fit a 0% to 100% survival scale.

Experiment [2] has as its system SKOV3 (Ovarian adenocarcinoma). The experiment can be described thus: In vitro cytotoxicity, microculture tetrazolium (MTT) assay, SKOV3. On the procedure:
as §1, §2, §3
SKOV3 (Ovarian adenocarcinoma)--provided by Dr. V. Ling,
as §4, §5, §6, §7, §8, §9

In experiment [3] the test system is SKVLB (Ovarian; multidrug resistant). The experiment can be described thus: In vitro cytotoxicity, microculture tetrazolium (MTT) assay, SKVLB. The conditions noted are these: for IC50: SKVLB, multidrug resistant, read-out: IC50; for VLB/OV3: ratio SKVLB / SKOV3. The gist of the method: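 Multidrug-resistant ovarian SKVLB cells exposed 48 h at 37 °C to 1:3 serial dilutions (100 μM–1.7 nM), then 48 h in fresh medium. MTT reduction read at 570 nm after DMSO extraction; four-parameter logistic fit normalized to 0–100% survival.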

The subject of experiment [4] is T47D (Ductal carcinoma of breast). The experiment in a line: In vitro cytotoxicity, microculture tetrazolium (MTT) assay, T47D. On the procedure:
as §1, §2, §3
T47D (Ductal carcinoma of breast)--ATCC catalog #HTB-133.
as §4, §5, §6, §7, §8, §9

In the next experiment the test system is Lox (Melanoma). The experiment in a line: In vitro cytotoxicity, microculture tetrazolium (MTT) assay, Lox. The method, then: as §1, §2, §3
Lox (Melanoma)--Southern Research Institute.
as §4, §5, §6, §7, §8, §9

Setting [5] is: Homo sapiens, HT-29, HT29, read-out: IC50.
Setting [6] is: Homo sapiens, SK-OV-3, SKOV3, read-out: IC50.

For the compound `CC(=NO)[C@@H]1CC2=C(C(=O)c3ccccc3C2=O)[C@@H](O[C@H]2C[C@H](NC(=O)C(F)(F)F)[C@H](O)[C@H](C)O2)O1` [BCH2115, (1'S,1R,3S)-3 (oximoethyl)-5,10-dioxo-1 (2,3,6-trideoxy-3-trifluoroacetamido-L-lyxohexopyranose)-3,4,5,10-tetrahydro-1H-naphtho-(2,3-c)-pyran], the IC50 in experiment [1] (setting [5]) is 5600 nM; in experiment [2] (setting [6]) it was 2300 nM; in experiment [3] (Homo sapiens) it was above 100000 nM; in experiment [4] (Homo sapiens, read-out: IC50), 5300 nM; in the experiment with Lox (Melanoma) (Homo sapiens, read-out: IC50), 4000 nM. In experiment [3], the VLB/OV3 was above 50.
On to `CC(=O)C1CC2=C(C(=O)c3ccccc3C2=O)C(OC2CC(NC(=O)C(F)(F)F)C(NC(=O)C(F)(F)F)C(C)O2)O1` [BCH2102, (1R,3S,1'S) and (1S,3R,1'S)-Methyl-(1-[2',3',4',6'-tetradeoxy-3',4'-bis-trifluoroacetamido-L-arabinohexopyranose]-5,10-dioxo-3,4,5,10-tetrahydronaphthaleno-[2,3-c]pyran-3-yl) ketone], for which the IC50 in experiment [1] (HT29, read-out: IC50) was 150 nM; in experiment [2] (SKOV3, read-out: IC50), 130 nM; in experiment [3], 723 nM; in experiment [4] (read-out: IC50) it was 300 nM; in the experiment with Lox (Melanoma) (read-out: IC50), 186 nM. In experiment [3], the VLB/OV3 came to 5.65.
For `COC1OC(C(=O)NCCCn2ccnc2)=CC2=C1C(=O)c1ccccc1C2=O` (stereo not shown) [BCH2157, (3-N-hydrochloroimidazolylpropyl)-1-methoxy-5,10-dioxo-5,10-dihydro-1H-naphtho-[2,3-c]-pyran-3-carboxamide], the IC50 in experiment [1] (setting [5]) was determined as 1230 nM; in experiment [2] (setting [6]), 187 nM; in experiment [3] (Homo sapiens), 3390 nM; in experiment [4] (Homo sapiens, read-out: IC50), 233 nM; with Lox (Melanoma) (Homo sapiens, read-out: IC50), 15.5 nM. Further, the VLB/OV3 in experiment [3] turned out to be 18.13.
Regarding `CC(=O)[C@@H]1CC2=C(C(=O)c3ccccc3C2=O)[C@H](OC2CCC(NC(=O)N(CCCl)N=O)CC2)O1` (mixture of isomers) [BCH2114, (1R,3S) and (1S,3R)-3-aceto-5,10-dioxo-1 (4-chloroethylnitrosoureido cyclohexyl-oxy)-3,4,5,10-tetrahydro-1H-naphtho-(2,3-c)-pyran], the IC50 in experiment [1] (HT29, read-out: IC50) is 257 nM; in experiment [2] (SKOV3, read-out: IC50), 472 nM; in experiment [3] it was 2040 nM; in experiment [4] (read-out: IC50) it was 655 nM; in the experiment with Lox (Melanoma) (read-out: IC50), 373 nM. Moreover, the VLB/OV3 in experiment [3] is 4.32.
On to “(1S,2'S,3R) and (1R,2'S,3S)-methyl-(1-[O-prolinol]-3,4,5,12-tetrahydronaphtho-[2,3-C] pyran-3-yl) ketone hydrochloride salt [BCH1658]”, for which the IC50 in experiment [1] (HT29, read-out: IC50) was 661 nM; in experiment [2] (SKOV3, read-out: IC50), 233 nM; in experiment [3], 1470 nM; in experiment [4] (read-out: IC50), 494 nM; with Lox (Melanoma) (read-out: IC50) it was 316 nM. The VLB/OV3 in experiment [3] was 6.31.
Take `CC(=O)[C@H]1CC2=C(C(=O)c3ccccc3C2=O)[C@H](O[C@H]2C[C@H](NC(=O)C(F)(F)F)[C@H](OC(=O)CBr)[C@H](C)O2)O1` [BCH2105, (1'-S,1-S,3-R)-methyl-(1-[2',3',4',6' tetradeoxy-3'-trifluoroacetamido-4'-O-(2-bromo-acetyl)-L-lyxopyranose]-5,10-dioxo-3,4,5,10 tetrahydronaphtho-[2,3-c]pyran-3-yl) ketone]: the IC50 stood at 6.9 nM in experiment [1] (HT29, read-out: IC50); 3 nM in experiment [2] (SKOV3, read-out: IC50); 370 nM in experiment [3]; 19 nM in experiment [4] (read-out: IC50); 25 nM in the experiment on Lox (Melanoma) (read-out: IC50). Also, the VLB/OV3 in experiment [3] was determined as 123.
As for “Methyl-(6-hydroxy-5,10-dioxo-3,4,5,10-tetrahydronaphtho-[2,3-c]-pyran-3-yl)ketone and methyl-(9-hydroxy-5,10-dioxo-3,4,5,10-tetrahydronaphtho-[2,3-c]-pyran-3-yl) ketone [BCH2062]”, the IC50 in experiment [1] (HT29, read-out: IC50) turned out to be 1140 nM; in experiment [2] (SKOV3, read-out: IC50), 810 nM; in experiment [3], 842 nM; in experiment [4] (read-out: IC50), 776 nM; with Lox (Melanoma) (read-out: IC50), 354 nM. In addition, the VLB/OV3 in experiment [3] is given as 1.04.
With `CC(=O)C1CC2=C(C(=O)c3ccccc3C2=O)C(OC2CC(NC(=O)C(F)(F)F)C(O)C(C)O2)O1` (stereo not shown) [BCH2144], the IC50 in experiment [1] (HT29, read-out: IC50) amounted to 5930 nM; in experiment [2] (SKOV3, read-out: IC50), 21400 nM; in experiment [3], 16100 nM; in experiment [4] (read-out: IC50), 7220 nM; with Lox (Melanoma) (read-out: IC50), 3280 nM. Also, the VLB/OV3 in experiment [3] worked out at 0.75.
In the case of `CC(=O)C1CC2=C(C(=O)c3ccccc3C2=O)C(OC2CC(NC(=O)C(F)(F)F)C(NC(=O)C(F)(F)F)C(C)O2)O1` [BCH2104, (1R,3S,1'S) and (1S,3R,1'S)-Methyl-(1-[2',3',4',6'-tetradeoxy-3',4'-bis-trifluoroacetamido-L-arabinohexopyranose]-5,10-dioxo-3,4,5,10-tetrahydronaphthaleno-[2,3-c]pyran-3-yl) ketone], the IC50 came to 171 nM in experiment [1] (HT29, read-out: IC50); 210 nM in experiment [2] (SKOV3, read-out: IC50); 1100 nM in experiment [3]; 613 nM in experiment [4] (read-out: IC50); 240 nM in the experiment on Lox (Melanoma) (read-out: IC50). Further, in experiment [3], the VLB/OV3 came out at 5.05.
In the case of `C=CCC1CC2=C(C(=O)c3ccccc3C2=O)C(OC2CC(NC(=O)C(F)(F)F)C(O)C(C)O2)O1` (stereo not shown) [BCH1648], the IC50 in experiment [1] (HT29, read-out: IC50) was found to be 309 nM; in experiment [2] (SKOV3, read-out: IC50), 51.9 nM; in experiment [3], 315 nM; in experiment [4] (read-out: IC50), 360 nM; with Lox (Melanoma) (read-out: IC50), 138 nM. Moreover, the VLB/OV3 in experiment [3] came to 6.07.
Take `COc1cccc2c1C(=O)c1c(O)c3c(c(O)c1C2=O)C[C@@](O)(C(=O)CO)C[C@@H]3O[C@H]1C[C@H](N)[C@H](O)[C@H](C)O1` [Adriamycin, reference compound]: the concentration for half-maximal inhibition (IC50) in experiment [1] (Homo sapiens, HT-29) was 90 nM; in experiment [2] (Homo sapiens, SK-OV-3), 12 nM; in experiment [4] (Homo sapiens), 70 nM; in the experiment on Lox (Melanoma) (Homo sapiens), 34 nM.
Consider `CC(=O)[C@@H]1CC2=C(C(=O)c3ccccc3C2=O)[C@@H](O[C@@H]2O[C@H](CO)[C@@H](O)[C@H](O)[C@H]2NC(=O)N(CCCl)N=O)O1` [BCH2038, (1'R,1R,3S)-3-aceto-5,10-dioxo-1-(2-deoxy-2-chloroethyl-nitrosoureido-D-glucopyranose)-3,4,5,10-tetrahydro-1H-naphtho-[2,3-C] pyran], for which the IC50 in experiment [1] (HT29, read-out: IC50) was determined as 2000 nM; in experiment [2] (SKOV3, read-out: IC50), 832 nM; in experiment [3], 3500 nM; in experiment [4] (read-out: IC50), 2000 nM; in the experiment on Lox (Melanoma) (read-out: IC50) it was 173 nM. Further, in experiment [3], the VLB/OV3 is given as 4.16.
In the case of `CC(NC(=O)C(F)(F)F)[C@H]1CC2=C(C(=O)c3ccccc3C2=O)[C@H](O[C@H]2C[C@H](O)[C@H](O)[C@H](C)O2)O1` (stereo partly drawn) [BCH2018, (1'S,1S,3R)-3-(trifluoroacetamidoethyl)-5,10-dioxo-1-(2',3',6'-trideoxy-3',4'-dihydroxy-L-lyxohexopyranose)-3,4,5,10-tetrahydro-1H-naphtho-[2,3-c]-pyran], the IC50 was 14200 nM in experiment [1] (setting [5]); 3110 nM in experiment [2] (setting [6]); 17700 nM in experiment [3] (Homo sapiens); 8560 nM in experiment [4] (Homo sapiens, read-out: IC50); 2380 nM in the experiment on Lox (Melanoma) (Homo sapiens, read-out: IC50). The VLB/OV3 in experiment [3] turned out to be 5.69.
Regarding `CC(=O)C1CC2=C(C(=O)c3ccccc3C2=O)C(OC[C@@H]2CCCN2C(=O)OC(C)(C)C)O1` (mixture of isomers) [BCH2067, (1S,2'S,3R) and (1R,2'S,3S)-methyl-(1-[O-N-BOC-prolinol]-5,10-dioxo-3,4,5,10-tetrahydro-1H-naphtho [2,3-C]pyran-3-yl) ketone], the IC50 stood at 323 nM in experiment [1] (HT29, read-out: IC50); 1200 nM in experiment [2] (SKOV3, read-out: IC50); 2240 nM in experiment [3]; 540 nM in experiment [4] (read-out: IC50); 1100 nM in the experiment with Lox (Melanoma) (read-out: IC50). In addition, the VLB/OV3 in experiment [3] is listed as 2.

These data come from patent publication US5736523A, “Antineoplastic heteronapthoquinones” (Biochem Pharma Inc., priority 1995, dated 1998).
